# Values of other authors in patent EP3888461A1, “NON-AQUEOUS DISPERSIONS COMPRISING INHIBITORS OF HYDROXYPHENYLPYRUVATE-DIOXYGENASE AND CITRIC ACID” (Bayer AG, priority 2020, dated 2021).
# Conditions: commercially available brands of surfactants of structure (II)
row,Substance,Log P
1,Tween® 20,-0.55
2,Tween® 40,1.47
3,Tween® 80,1.99
4,Tween® 21,2.71
5,Polyoxyethylene (16) sorbitan monolaurate [Tween® 24],0.26
6,Tween® 60,2.48
